Reference: patent US20230002359A1, “PESTICIDALLY ACTIVE FUSED BICYCLIC HETEROAROMATIC COMPOUNDS” (priority 2019, published 2023)

Assays:
Assay type in all cases: in vivo
[1] = system: Diabrotica Balteata (Corn Root Worm); experiment: Example B1: Diabrotica balteata (corn root worm), maize sprouts sprayed, L2 larvae; settings: 96 h, application rate of 200 ppm, 4 days after infestation, L2 larvae, read-out: control in at least one of the two categories (mortality or growth inhibition)
Method in brief: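 Read-out is mortality plus growth inhibition relative to untreated controls, assessed 4 days after infestation. Sprouts resting on agar are sprayed with aqueous solutions derived from 10′000 ppm DMSO stocks and left to dry before L2 larvae (6 to 10 per well) are added.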

[2] = system: Chilo suppressalis (Striped Rice Stemborer); experiment: Example B3: Chilo suppressalis (striped rice stemborer), artificial diet, L2 larvae; settings: 144 h, application rate of 200 ppm, 6 days after infestation, L2 larvae, read-out: control in at least one of the three categories (mortality, anti-feedant effect, or growth inhibition)
Method in brief: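 Artificial diet in wells was treated with aqueous test solutions diluted from 10'000 ppm DMSO stocks, dried, then infested with 6-8 L2 larvae per well. Mortality, anti-feeding effect and growth inhibition were scored against untreated samples 6 days after infestation; control means any category exceeds the untreated sample.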

[3] = system: Plutella xylostella (Diamond Back Moth); experiment: Example B4: Plutella xylostella (diamond back moth), artificial diet, eggs, 24-well; settings: 192 h, application rate of 200 ppm, 8 days after infestation, eggs, read-out: control in at least one of the two categories (mortality or growth inhibition)
Description: 24-well microtiter plates with artificial diet were treated with aqueous test solutions prepared from 10′000 ppm DMSO stock solutions by pipetting. After drying, Plutella eggs were pipetted through a plastic stencil onto a gel blotting paper and the plate was closed with it. The samples were assessed for mortality and growth inhibition in comparison to untreated samples 8 days after infestation.

[4] = system: Spodoptera littoralis (Egyptian Cotton Leaf Worm); experiment: Example B7: Spodoptera littoralis (Egyptian cotton leaf worm), cotton leaf discs sprayed, L1 larvae; settings: foliar, 72 h, application rate of 200 ppm, 3 days after infestation, L1 larvae, read-out: control in at least one of the three categories (mortality, anti-feedant effect, or growth inhibition)
Method in brief: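 Five L1 larvae per sprayed, dried cotton leaf disc on agar. Activity is counted when mortality, anti-feedant effect or growth inhibition exceeds the untreated sample at day 3.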

[5] = system: Plutella xylostella (Diamondback Moth); experiment: Example B9: Plutella xylostella (diamondback moth), artificial diet, eggs, 96-well; settings: 216 h, application rate of 500 ppm, 9 days after infestation, read-out: control in mortality
Description: 96-well microtiter plates containing artificial diet were treated with aqueous test solutions, prepared from 10′000 ppm DMSO stock solutions, by a liquid handling robot. After drying, eggs (˜30 per well) were infested onto a netted lid which was suspended above the diet. The eggs hatch and L1 larvae move down to the diet. The samples were assessed for mortality 9 days after infestation.

[6] = system: Euschistus heros (Neotropical Brown Stink Bug); experiment: Example B2: Euschistus heros (neotropical brown stink bug), soybean leaves sprayed, N2 nymphs; settings: 120 h, application rate of 200 ppm, 5 days after infestation, N2 nymphs, read-out: control in at least one of the two categories (mortality or growth inhibition)
Description: Soybean leaves on agar in 24-well microtiter plates were sprayed with aqueous test solutions prepared from 10′000 ppm DMSO stock solutions. After drying the leaves were infested with N2 nymphs. The samples were assessed for mortality and growth inhibition in comparison to untreated samples 5 days after infestation.

[7] = system: Myzus persicae (Green Peach Aphid); experiment: Example B6: Myzus persicae (green peach aphid) intrinsic activity, sucrose solution; settings: 120 h, test rate of 12 ppm, 5 days after infestation, intrinsic activity, read-out: mortality
Method in brief: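 Compounds from 10′000 ppm DMSO stocks were mixed into sucrose solution in 24-well plates sealed with Parafilm. Aphid-infested pea seedlings were set on the membrane and the plate inverted so aphids fed through it. Mortality scored 5 days after infestation.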

[8] = system: Spodoptera littoralis (Egyptian Cotton Leaf Worm); experiment: Example B8: Spodoptera littoralis (Egyptian cotton leaf worm), uptake by lettuce roots from agar, eggs; settings: 144 h, test rate of 12.5 ppm, 6 days after infestation, compound absorbed by lettuce roots, read-out: control in at least one of the three categories (mortality, anti-feeding, or growth inhibition)
Description: Test compounds were applied by pipette from 10′000 ppm DMSO stock solutions into 24-well plates and mixed with agar. Lettuce seeds were placed onto the agar and the multi well plate was closed by another plate which contained also agar. After 7 days the compound was absorbed by the roots and the lettuce grew into the lid plate. The lettuce leaves were then cut off into the lid plate. Spodoptera eggs were pipetted through a plastic stencil onto a humid gel blotting paper and the lid plate was closed with it. The samples were assessed for mortality, anti-feedant effect and growth inhibition in comparison to untreated samples 6 days after infestation.
The following compounds gave an effect of at least 80% control in at least one of the three categories (mortality, anti-feeding, or growth inhibition) at a test rate of 12.5 ppm: P.58, P.93, P.94, P.95, P.130, P.254, P.256.

[9] = system: Myzus persicae (Green Peach Aphid); experiment: Example B5: Myzus persicae (green peach aphid) feeding/contact activity, sunflower leaf discs; settings: foliar, 144 h, application rate of 200 ppm, 6 days after infestation
Description: Sunflower leaf discs were placed onto agar in a 24-well microtiter plate and sprayed with aqueous test solutions prepared from 10′000 ppm DMSO stock solutions. After drying, the leaf discs were infested with an aphid population of mixed ages. The samples were assessed for mortality 6 days after infestation.

CC(Nc1ncnc2c(Cl)cc(Cl)cc12)c1ncnn1-c1ncccn1 (centres unmarked) [P.68, 6,8-dichloro-N-[1-(2-pyrimidin-2-yl-1,2,4-triazol-3-yl)ethyl]quinazolin-4-amine]
≥ 80%: percent control (mortality or growth inhibition) at 200 ppm [1] | percent control (mortality, anti-feedant effect or growth inhibition) at 200 ppm [2] | percent control (mortality or growth inhibition) at 200 ppm [3] | percent control (mortality, anti-feedant effect or growth inhibition) at 200 ppm [4] | mortality at 500 ppm [5]

CC(Nc1ccnc2c(Cl)cc(Cl)cc12)c1ncnn1-c1ncccn1 (centres unmarked) [P.67, 6,8-dichloro-N-[1-(2-pyrimidin-2-yl-1,2,4-triazol-3-yl)ethyl]quinolin-4-amine]
≥ 80%: percent control (mortality or growth inhibition) at 200 ppm [1] | percent control (mortality, anti-feedant effect or growth inhibition) at 200 ppm [2] | percent control (mortality or growth inhibition) at 200 ppm [3] | percent control (mortality, anti-feedant effect or growth inhibition) at 200 ppm [4] | mortality at 500 ppm [5]

C[C@H](Nc1ncnc2c(OC(F)F)cc(Cl)cc12)c1ncnn1-c1ncccn1 [P.93, 6-chloro-8-(difluoromethoxy)-N-[(1S)-1-(2-pyrimidin-2-yl-1,2,4-triazol-3-yl)ethyl]quinazolin-4-amine]
≥ 80%: percent control (mortality or growth inhibition) at 200 ppm [1] | percent control (mortality or growth inhibition) at 200 ppm [6] | percent control (mortality, anti-feedant effect or growth inhibition) at 200 ppm [2] | percent control (mortality or growth inhibition) at 200 ppm [3] | mortality at 12 ppm [7] | percent control (mortality, anti-feedant effect or growth inhibition) at 200 ppm [4] | percent control (mortality, anti-feeding or growth inhibition) at 12.5 ppm [8] | mortality at 500 ppm [5]

C[C@H](Nc1ccnc2c(Br)cc(C(F)(F)F)cc12)c1ncnn1-c1ccc(C#N)cn1 [P.256, 6-[5-[(1S)-1-[[8-bromo-6-(trifluoromethyl)-4-quinolyl]amino]ethyl]-1,2,4-triazol-1-yl]pyridine-3-carbonitrile]
≥ 80%: percent control (mortality or growth inhibition) at 200 ppm [1] | percent control (mortality, anti-feedant effect or growth inhibition) at 200 ppm [2] | percent control (mortality or growth inhibition) at 200 ppm [3] | percent control (mortality, anti-feedant effect or growth inhibition) at 200 ppm [4] | percent control (mortality, anti-feeding or growth inhibition) at 12.5 ppm [8]

C[C@H](Nc1ncnc2c(I)cc(C(F)(F)F)cc12)c1ncnn1-c1ncccn1 [P.95, 8-iodo-N-[(1S)-1-(2-pyrimidin-2-yl-1,2,4-triazol-3-yl)ethyl]-6-(trifluoromethyl)quinazolin-4-amine]
≥ 80%: percent control (mortality or growth inhibition) at 200 ppm [1] | percent control (mortality or growth inhibition) at 200 ppm [6] | percent control (mortality, anti-feedant effect or growth inhibition) at 200 ppm [2] | percent control (mortality or growth inhibition) at 200 ppm [3] | mortality at 200 ppm [9] | mortality at 12 ppm [7] | percent control (mortality, anti-feedant effect or growth inhibition) at 200 ppm [4] | percent control (mortality, anti-feeding or growth inhibition) at 12.5 ppm [8] | mortality at 500 ppm [5]

CC(c1ncnn1-c1ccc(C#N)cn1)N(C)c1ncnc2c(C(F)(F)F)cc(Br)cc12 (centres unmarked) [P.52, 6-[5-[1-[[6-bromo-8-(trifluoromethyl)quinazolin-4-yl]-methyl-amino]ethyl]-1,2,4-triazol-1-yl]pyridine-3-carbonitrile]
≥ 80%: percent control (mortality or growth inhibition) at 200 ppm [1] | percent control (mortality, anti-feedant effect or growth inhibition) at 200 ppm [2] | percent control (mortality or growth inhibition) at 200 ppm [3] | mortality at 200 ppm [9] | mortality at 12 ppm [7] | percent control (mortality, anti-feedant effect or growth inhibition) at 200 ppm [4] | mortality at 500 ppm [5]

CC(c1ncnn1-c1ncccn1)N(C)c1ncnc2c(C(F)(F)F)cc(C(F)(F)F)cc12 (centres unmarked) [P.58, N-methyl-N-[1-(2-pyrimidin-2-yl-1,2,4-triazol-3-yl)ethyl]-6,8-bis(trifluoromethyl)quina-zolin-4-amine]
≥ 80%: percent control (mortality, anti-feeding or growth inhibition) at 12.5 ppm [8] | mortality at 500 ppm [5]

CC(Nc1ncnc2c(C(F)(F)F)cc(Cl)cc12)c1nccnc1-c1ncccn1 (centres unmarked) [P.130, 6-chloro-N-[1-(3-pyrimidin-2-ylpyrazin-2-yl)ethyl]-8-(trifluoromethyl)quinazolin-4-amine]
≥ 80%: percent control (mortality or growth inhibition) at 200 ppm [1] | percent control (mortality, anti-feedant effect or growth inhibition) at 200 ppm [2] | percent control (mortality or growth inhibition) at 200 ppm [3] | mortality at 200 ppm [9] | mortality at 12 ppm [7] | percent control (mortality, anti-feedant effect or growth inhibition) at 200 ppm [4] | percent control (mortality, anti-feeding or growth inhibition) at 12.5 ppm [8]

CC(c1ncnn1-c1ncccn1)N(C)c1ncnc2c(Cl)cc(Cl)cc12 (centres unmarked) [P.66, 6,8-dichloro-N-methyl-N-[1-(2-pyrimidin-2-yl-1,2,4-triazol-3-yl)ethyl]quianzolin-4-amine]
≥ 80%: percent control (mortality or growth inhibition) at 200 ppm [1] | percent control (mortality, anti-feedant effect or growth inhibition) at 200 ppm [2] | percent control (mortality or growth inhibition) at 200 ppm [3] | mortality at 12 ppm [7] | mortality at 500 ppm [5]

C[C@H](Nc1ncnc2c(Cl)cc(OC(F)F)cc12)c1ncnn1-c1ncccn1 [P.94, 8-chloro-6-(difluoromethoxy)-N-[(1S)-1-(2-pyrimidin-2-yl-1,2,4-triazol-3-yl)ethyl]quinazolin-4-amine]
≥ 80%: percent control (mortality or growth inhibition) at 200 ppm [1] | percent control (mortality, anti-feedant effect or growth inhibition) at 200 ppm [2] | percent control (mortality or growth inhibition) at 200 ppm [3] | mortality at 200 ppm [9] | mortality at 12 ppm [7] | percent control (mortality, anti-feeding or growth inhibition) at 12.5 ppm [8] | mortality at 500 ppm [5]

C[C@@H](c1ncnn1-c1ccc(C#N)cn1)N(C)c1ccnc2c(Br)cc(C(F)(F)F)cc12 [P.254, 6-[5-[(1S)-1-[[8-bromo-6-(trifluoromethyl)-4-quinolyl]-methyl-amino]ethyl]-1,2,4-triazol-1-yl]pyridine-3-carbonitrile]
≥ 80%: percent control (mortality or growth inhibition) at 200 ppm [1] | percent control (mortality, anti-feedant effect or growth inhibition) at 200 ppm [2] | percent control (mortality or growth inhibition) at 200 ppm [3] | percent control (mortality, anti-feedant effect or growth inhibition) at 200 ppm [4] | percent control (mortality, anti-feeding or growth inhibition) at 12.5 ppm [8]
